Consider 24 molecules from patent US9510598B2, “Nitrogen-containing heterocyclic compounds for plant disease control” (BAYER CROPSCIENCE AG, priority 2012, dated 2016).

Where two headings read alike, the source gives them in different places.

The test system of one series is Puccinia recondita. The series is described as follows: In vivo preventive test on Puccinia recondita (brown rust on wheat). The following applies: 500 ppm; wheat plants sprayed 24 hours before contamination; grading 10 days after contamination vs control plants. The procedure: Wheat plants (“Scipion” variety), sown in starter cups on a 50/50 peat soil-pozzolana substrate and grown at 22° C. (12 h)/20° C. (12 h), are treated at the 1-leaf stage (10 cm height) by spraying with the active ingredient prepared as described above. Plants, used as controls, are treated with the mixture of acetone/tween/DMSO/water not containing the active material. After 24 hours, the plants are contaminated by spraying the leaves with an aqueous suspension of Puccinia recondita spores (100 000 spores per ml).

The next series relates to Uromyces appendiculatus. The series is described as follows: In vivo preventive test on Uromyces appendiculatus (bean rust). Conditions: 500 ppm; bean plants sprayed 24 hours before contamination; grading 10 days after contamination vs control plants. The procedure: Bean plants (“Saxa” variety), sown in starter cups on a 50/50 peat soil-pozzolana substrate and grown at 24° C., are treated at the 2-leaf stage (9 cm height) by spraying with the active ingredient prepared as described above. Plants, used as controls, are treated with the mixture of acetone/tween/DMSO/water not containing the active material. After 24 hours, the plants are contaminated by spraying the leaves with an aqueous suspension of Uromyces appendiculatus spores (150 000 spores per ml).

Another series deals with Septoria tritici. Description: In vivo preventive test on Septoria tritici (leaf spot on wheat). The following applies: 500 ppm; wheat plants sprayed 24 hours before contamination; grading 21 to 28 days after contamination vs control plants. A digest of the protocol:
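Scipion wheat at 1-leaf stage sprayed with compound, controls receiving acetone/tween/DMSO/water vehicle; 24 h later leaves inoculated with Septoria tritici spores (500 000 spores per ml). Efficacy (%) graded versus control plants 21 to 28 days after contamination.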

Series [1] is classed as physicochemical.
For a further series, the system named is Sphaerotheca fuliginea. Description: In vivo preventive test on Sphaerotheca fuliginea (powdery mildew on cucurbits). Conditions: 500 ppm; gherkin plants sprayed 24 hours before contamination; grading 12 days after contamination vs control plants. A digest of the protocol:
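Preventive spray of gherkin plants at Z11 cotyledon stage, grown at 24° C; inoculation 24 hours later with Sphaerotheca fuliginea spores (100 000 spores per ml). Efficacy graded 12 days post-inoculation as % versus solvent-treated control plants.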

The next series concerns Botrytis cinerea. Description: In vivo preventive test on Botrytis cinerea (grey mould). Conditions: 500 ppm; gherkin plants sprayed 24 hours before contamination; grading 4-5 days after contamination vs control plants. A digest of the protocol: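 Gherkin plants ("Vert petit de Paris") sprayed with compound at Z11 cotyledon stage, then inoculated 24 h later with B. cinerea spores (50 000/ml) in PDB/fructose/NH4NO3/KH2PO4 nutrient solution. Incubated at 17 °C, 80% RH; % efficacy versus solvent-treated controls graded 4–5 days after contamination.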

The next series deals with Phytophthora infestans. It is filed as in vivo. Conditions: 500 ppm; tomato plants sprayed 24 hours before contamination; grading 5 days after contamination vs control plants.
A further series concerns Pyrenophora teres. The series is described as follows: In vivo preventive test on Pyrenophora teres (net blotch on barley). Conditions: 500 ppm; barley plants sprayed 24 hours before contamination; grading 12 days after contamination vs control plants. How it is done:
Barley plants (“Plaisant” variety), sown in starter cups on a 50/50 peat soil-pozzolana substrate and grown at 22° C. (12 h)/20° C. (12 h), are treated at the 1-leaf stage (10 cm height) by spraying with the active ingredient prepared as described above. Plants, used as controls, are treated with the mixture of acetone/tween/DMSO/water not containing the active material. After 24 hours, the plants are contaminated by spraying the leaves with an aqueous suspension of Pyrenophora teres spores (12 000 spores per ml). The spores are collected from a 12-day-old culture. […] Grading (% of efficacy) is carried out 12 days after the contamination, in comparison with the control plants.

The next series concerns Alternaria brassicae. The series is described as follows: In vivo preventive test on Alternaria brassicae (leaf spot on radish). Conditions: 500 ppm; radish plants sprayed 24 hours before contamination; grading 5 days after contamination vs control plants. A digest of the protocol:
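Radish plants ('Pernod Clair', grown at 17 °C) were spray-treated at the 2-leaf stage; controls received solvent mix only. After 24 h, leaves were sprayed with 50 000 spores/ml from 15-day-old cultures, and % efficacy was graded 5 days post-inoculation against controls.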

Setting [2] is: method [a]: HPLC/LC-MS on reversed phase at pH 2.7, 0.1% formic acid in water / acetonitrile, gradient 10% to 95% acetonitrile.
The mark [3] stands for this setting: method [a]: HPLC/LC-MS on reversed phase at pH 2.7, 0.1% formic acid in water / acetonitrile, linear gradient 10% to 95% acetonitrile.
[4] abbreviates: HPLC on reversed phase columns, method [a]: pH 2.7, 0.1% formic acid in water / acetonitrile, linear gradient 10% to 95% acetonitrile.

Regarding `C#Cc1cnc2ccc(C3=NOC(CC)(C(=O)NCC4COC(C)(C)O4)C3)cc2c1` (mixture of isomers) [compound 441], the “% of efficacy (protection)” value was 83% in the series with Puccinia recondita, 91% in the series with Uromyces appendiculatus, 100% in the series with Septoria tritici and 94% in the series with Sphaerotheca fuliginea. In [1] (setting [2]), the “log P” value was 2.66[a].
Consider `CC(C)NC(=O)C1(C)CC(c2ccc3ncc(-c4ccco4)cc3c2)=NO1` (racemic) [compound 382], for which the “% of efficacy (protection)” value in the series with Puccinia recondita is reported as 79%; in the series with Uromyces appendiculatus, 89%. Further, in [1] (setting [2]), the “log P” value is 2.77[a].
Regarding `C#Cc1cnc2ccc(C3=NOC(OC)(C(=O)NC4CCC4)C3)cc2c1` (racemic) [compound 429], the “% of efficacy (protection)” value in the series on Puccinia recondita was 89%; in the series with Botrytis cinerea it was 100%; with Uromyces appendiculatus it was 71%; in the series on Septoria tritici it was 100%; in the series on Sphaerotheca fuliginea, 83%. The “log P” value in [1] (setting [2]) was 2.54[a].
Consider `Cn1cc(NC(=O)C2(C)CC(c3ccc4ncc(Br)cc4c3)=NO2)cn1` (racemic) [compound 434], for which the “% of efficacy (protection)” value in the series on Puccinia recondita amounted to 88%; in the series with Uromyces appendiculatus, 97%; with Septoria tritici, 100%. The “log P” value in series [1] (setting [2]) was 2.17[a].
In the case of `C#Cc1cnc2ccc(C3=NOC(CC)(C(=O)NCc4cn(CC)nc4C)C3)cc2c1` (racemic) [compound 438], the “% of efficacy (protection)” value with Puccinia recondita was 88%; in the series with Uromyces appendiculatus, 97%; in the series on Septoria tritici, 100%; in the series with Sphaerotheca fuliginea, 89%; in the series with Phytophthora infestans it was 87%. Moreover, the “log P” value in series [1] (setting [2]) is 2.37[a].
`C#Cc1cnc2ccc(C3=NOC(OC)(C(=O)NCc4cn(CC)nc4C)C3)cc2c1` (racemic) [compound 442]: the “% of efficacy (protection)” value was found to be 89% in the series with Puccinia recondita; 100% in the series with Botrytis cinerea; 88% in the series with Uromyces appendiculatus; 97% in the series on Septoria tritici; 100% in the series with Sphaerotheca fuliginea; 94% in the series with Phytophthora infestans. Moreover, the “log P” value in series [1] (setting [2]) was 2.14[a].
Take `C#Cc1cnc2ccc(C3=NOC(CC)(C(=O)NC4CCC4)C3)cc2c1` (racemic) [compound 447]: the “% of efficacy (protection)” value with Puccinia recondita is on record as 89%; in the series with Botrytis cinerea it was 97%; in the series on Uromyces appendiculatus it was 100%; in the series with Septoria tritici it was 75%; with Sphaerotheca fuliginea, 75%. Further, in series [1] (setting [2]), the “log P” value was 2.94[a].
For `COC1(C(=O)NC2CC2)CC(c2ccc3ncc(I)cc3c2)=NO1` (racemic) [compound 450], the “% of efficacy (protection)” value in the series on Puccinia recondita was 89%; with Botrytis cinerea it was 100%; in the series on Uromyces appendiculatus, 91%; with Septoria tritici, 98%; in the series with Sphaerotheca fuliginea, 98%. The “log P” value in [1] (setting [2]) was 2.48[a].
Consider `CC1(C(=O)NCc2ccc3c(c2)CCO3)CC(c2ccc3ncc(Br)cc3c2)=NO1` (centres unmarked) [compound 122], for which, in the series with Pyrenophora teres, the “% of efficacy (protection)” value turned out to be 86%. Moreover, in [1] (setting [3]), the “log P” value was 3.13^[a].
Take `CCn1cc(CNC(=O)C2(C)CC(c3ccc4ncc(-c5ccccc5)cc4c3)=NO2)c(C)n1` (centres unmarked) [compound 140]: the “% of efficacy (protection)” value in the series with Puccinia recondita is 81%; in the series with Uromyces appendiculatus it was 96%; with Septoria tritici, 80%; in the series with Sphaerotheca fuliginea, 83%. Besides, the “log P” value in [1] (setting [3]) was 2.63^[a].
With `Cc1nn(C)c(C)c1CNC(=O)C1(C)CC(c2ccc3ncc(Br)cc3c2)=NO1` (centres unmarked) [compound 177], the “% of efficacy (protection)” value in the series on Pyrenophora teres stood at 86%. For the same molecule, the “log P” value in series [1] (setting [3]) was 2.13^[a].
As for `Cc1c(CNC(=O)C2(C)CC(c3ccc4ncc(Br)cc4c3)=NO2)cnn1C` (centres unmarked) [compound 179], the “% of efficacy (protection)” value in the series on Pyrenophora teres was determined as 86%. Besides, the “log P” value in series [1] (setting [3]) is 2.15^[a].
As for `C#Cc1cnc2ccc(C3=NOC(C)(C(=O)NCc4ccc(Cl)cc4)C3)cc2c1` (centres unmarked) [compound 200], the “% of efficacy (protection)” value in the series on Pyrenophora teres is reported as 71%. In addition, the “log P” value in series [1] (setting [3]) is 3.23^[a].
On to `C#Cc1cnc2ccc(C3=NOC(C)(C(=O)NCc4cccc5ccccc45)C3)cc2c1` (centres unmarked) [compound 225], for which the “% of efficacy (protection)” value in the series on Pyrenophora teres is given as 79%. Besides, the “log P” value in series [1] (setting [3]) is 3.46^[a].
Regarding `C#CC1(NC(=O)C2(C)CC(c3ccc4ncc(Br)cc4c3)=NO2)CCCCC1` (centres unmarked) [compound 237], the “% of efficacy (protection)” value is 80% with Uromyces appendiculatus and 71% with Alternaria brassicae. Moreover, the “log P” value in series [1] (setting [4]) is 3.9^[a].
With `CCc1cnc2ccc(C3=NOC(C)(C(=O)NCc4cn(CC)nc4C)C3)cc2c1` (centres unmarked) [compound 256], the “% of efficacy (protection)” value with Pyrenophora teres is given as 75%; with Septoria tritici, 100%. The “log P” value in series [1] (setting [4]) was 1.72^[a].
In the case of `CCn1cc(CNC(=O)C2(C)CC(c3ccc4ncc(-c5cncnc5)cc4c3)=NO2)c(C)n1` (centres unmarked) [compound 265], the “% of efficacy (protection)” value amounted to 88% in the series with Puccinia recondita and 96% in the series with Uromyces appendiculatus. Further, in series [1] (setting [4]), the “log P” value was 1.62^[a].
In the case of `COC1(C(=O)NC2CCC2)CC(c2ccc3ncc(Br)cc3c2)=NO1` (centres unmarked) [compound 414], the “% of efficacy (protection)” value in the series on Puccinia recondita is 89%; with Botrytis cinerea, 100%; in the series with Uromyces appendiculatus, 100%; in the series with Septoria tritici it was 100%; in the series on Sphaerotheca fuliginea, 98%. For the same molecule, in series [1] (setting [2]), the “log P” value is 2.84[a].
`COC1C(c2ccc3ncc(Br)cc3c2)=NOC1(C)C(=O)NC(C)C` (centres unmarked) [compound 419]: the “% of efficacy (protection)” value in the series on Pyrenophora teres was 75%. The “log P” value in [1] (setting [2]) is 2.91[a].
On to `C/C(=N\O)C1(C(=O)NC(C)C)CC(c2ccc3ncc(Br)cc3c2)=NO1` (centres unmarked) [compound 420], for which the results for the “% of efficacy (protection)” value in the series with Puccinia recondita and in the series on Uromyces appendiculatus were 94% and 97%, respectively. In series [1] (setting [2]), the “log P” value was 2.58[a].
For the molecule `C#Cc1cnc2ccc(C3=NOC(OC)(C(=O)NCC4COC(C)(C)O4)C3)cc2c1` (centres unmarked) [compound 476], the “% of efficacy (protection)” value in the series with Puccinia recondita was found to be 90%; in the series with Botrytis cinerea, 100%; in the series with Uromyces appendiculatus, 77%; with Septoria tritici it was 97%; with Sphaerotheca fuliginea, 98%; with Phytophthora infestans, 85%. For the same molecule, in series [1] (setting [2]), the “log P” value was 2.35[a].
In the case of `COC1(C(=O)NCC(O)CO)CC(c2ccc3ncc(Br)cc3c2)=NO1` (centres unmarked) [compound 477], the “% of efficacy (protection)” value with Puccinia recondita is listed as 90%; with Uromyces appendiculatus it was 86%; in the series on Sphaerotheca fuliginea it was 75%; in the series on Phytophthora infestans, 98%. For the same molecule, in [1] (setting [2]), the “log P” value was 1.59[a].
Regarding `CC(C)NC(=O)C1(C(F)F)CC(c2ccc3ncc(Br)cc3c2)=NO1` (centres unmarked) [compound 480], the results for the “% of efficacy (protection)” value in the series on Puccinia recondita and with Uromyces appendiculatus were 90% and 83%, respectively.
As to `COC1(C(=O)NC2CCC2)CC(c2ccc3ncc(I)cc3c2)=NO1` (centres unmarked) [compound 482], the “% of efficacy (protection)” value came to 83% in the series with Puccinia recondita; 100% in the series with Botrytis cinerea; 98% in the series on Uromyces appendiculatus; 100% in the series with Septoria tritici; 100% in the series with Sphaerotheca fuliginea. For the same molecule, in series [1] (setting [2]), the “log P” value was 2.95[a].
